From ChEMBL document CHEMBL4303773 (Nature, 2020) come the findings set out here.

Test [1] deals with T1, Alpha-2C adrenergic receptor (Homo sapiens, UniProt P18825).
T1 sequence (P18825 whole entry): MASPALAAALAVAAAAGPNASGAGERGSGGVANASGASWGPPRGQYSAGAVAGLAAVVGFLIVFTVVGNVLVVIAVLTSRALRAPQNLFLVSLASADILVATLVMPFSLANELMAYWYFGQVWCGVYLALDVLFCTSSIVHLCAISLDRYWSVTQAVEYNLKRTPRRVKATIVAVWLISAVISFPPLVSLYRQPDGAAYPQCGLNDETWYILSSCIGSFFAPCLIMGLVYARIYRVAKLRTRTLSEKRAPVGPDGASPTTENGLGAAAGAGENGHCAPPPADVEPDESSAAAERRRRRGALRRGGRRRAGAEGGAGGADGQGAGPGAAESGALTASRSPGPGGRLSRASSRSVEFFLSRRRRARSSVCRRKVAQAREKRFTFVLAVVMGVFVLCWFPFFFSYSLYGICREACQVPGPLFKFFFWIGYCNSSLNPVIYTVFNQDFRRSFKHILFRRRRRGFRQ
Description: Activity of compound against Alpha 2C (ADRA2C) adrenergic receptor by displacement of [3H]-rauwolscine

In test [2] the target is Sigma intracellular receptor 2 (Homo sapiens, UniProt Q5BJF2). Put plainly: Displacement of [3H]-DTG from the Sigma2 receptor. In general terms: Displacement assays read how much labelled ligand stays bound in the presence of the test substance.
The target of test [3] is Sigma non-opioid intracellular receptor 1 (Homo sapiens, UniProt Q99720).
Description: Displacement of [3H]-pentazocin from the Sigma1 receptor
Test [4] deals with T2, Alpha-2A adrenergic receptor (Homo sapiens, UniProt P08913).
T2 sequence (P08913 whole entry): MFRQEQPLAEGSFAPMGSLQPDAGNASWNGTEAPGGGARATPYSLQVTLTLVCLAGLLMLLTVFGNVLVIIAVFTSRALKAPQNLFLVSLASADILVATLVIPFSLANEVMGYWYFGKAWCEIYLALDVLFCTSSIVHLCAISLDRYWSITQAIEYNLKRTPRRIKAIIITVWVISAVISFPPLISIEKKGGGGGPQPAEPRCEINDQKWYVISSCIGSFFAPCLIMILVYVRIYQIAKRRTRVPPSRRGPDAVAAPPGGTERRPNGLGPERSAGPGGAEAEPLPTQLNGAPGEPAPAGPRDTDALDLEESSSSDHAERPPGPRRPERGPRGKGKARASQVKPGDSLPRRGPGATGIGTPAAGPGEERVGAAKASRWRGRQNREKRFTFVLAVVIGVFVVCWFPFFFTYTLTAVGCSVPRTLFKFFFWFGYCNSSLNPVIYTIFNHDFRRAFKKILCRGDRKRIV
Nature of the test: Activity of compound against Alpha-2A (ADRA2A) adrenergic receptor by displacement of [3H]-rauwolscine.

In test [5] the target is T3, Alpha-2B adrenergic receptor (Homo sapiens, UniProt P18089).
T3 sequence (P18089 whole entry): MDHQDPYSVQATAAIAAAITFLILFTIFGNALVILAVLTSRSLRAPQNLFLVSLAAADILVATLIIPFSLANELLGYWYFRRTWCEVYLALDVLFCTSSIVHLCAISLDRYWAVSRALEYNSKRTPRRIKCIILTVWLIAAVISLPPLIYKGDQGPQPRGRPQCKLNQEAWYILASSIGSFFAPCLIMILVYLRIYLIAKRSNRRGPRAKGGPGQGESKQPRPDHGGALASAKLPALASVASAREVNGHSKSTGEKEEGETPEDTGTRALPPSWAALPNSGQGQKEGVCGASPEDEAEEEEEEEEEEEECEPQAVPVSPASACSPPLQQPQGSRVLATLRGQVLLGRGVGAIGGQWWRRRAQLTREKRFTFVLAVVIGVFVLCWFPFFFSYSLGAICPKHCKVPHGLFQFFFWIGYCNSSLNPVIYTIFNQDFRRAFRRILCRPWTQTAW

The target of test [6] is T4, Muscarinic acetylcholine receptor M4 (Homo sapiens, UniProt P08173).
T4 sequence (P08173 whole entry): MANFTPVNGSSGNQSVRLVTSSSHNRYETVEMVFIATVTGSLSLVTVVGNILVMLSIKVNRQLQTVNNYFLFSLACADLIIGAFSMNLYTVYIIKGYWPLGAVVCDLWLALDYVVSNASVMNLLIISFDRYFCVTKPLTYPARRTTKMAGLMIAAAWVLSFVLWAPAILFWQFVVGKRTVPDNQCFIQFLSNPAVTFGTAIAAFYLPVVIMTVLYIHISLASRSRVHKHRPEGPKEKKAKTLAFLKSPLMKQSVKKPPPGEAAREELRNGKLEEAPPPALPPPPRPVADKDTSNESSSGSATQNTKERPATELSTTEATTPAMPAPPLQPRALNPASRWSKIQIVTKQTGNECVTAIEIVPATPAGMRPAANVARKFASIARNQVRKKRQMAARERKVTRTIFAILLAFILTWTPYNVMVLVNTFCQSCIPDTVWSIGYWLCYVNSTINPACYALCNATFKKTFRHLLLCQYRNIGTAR
Nature of the test: Activity of compound against Muscarinic acetylcholine receptor M4 (CHRM4) by displacement of 3H-QNB.

Test [7] concerns the target T5, Muscarinic acetylcholine receptor M5 (Homo sapiens, UniProt P08912).
T5 sequence (P08912 whole entry): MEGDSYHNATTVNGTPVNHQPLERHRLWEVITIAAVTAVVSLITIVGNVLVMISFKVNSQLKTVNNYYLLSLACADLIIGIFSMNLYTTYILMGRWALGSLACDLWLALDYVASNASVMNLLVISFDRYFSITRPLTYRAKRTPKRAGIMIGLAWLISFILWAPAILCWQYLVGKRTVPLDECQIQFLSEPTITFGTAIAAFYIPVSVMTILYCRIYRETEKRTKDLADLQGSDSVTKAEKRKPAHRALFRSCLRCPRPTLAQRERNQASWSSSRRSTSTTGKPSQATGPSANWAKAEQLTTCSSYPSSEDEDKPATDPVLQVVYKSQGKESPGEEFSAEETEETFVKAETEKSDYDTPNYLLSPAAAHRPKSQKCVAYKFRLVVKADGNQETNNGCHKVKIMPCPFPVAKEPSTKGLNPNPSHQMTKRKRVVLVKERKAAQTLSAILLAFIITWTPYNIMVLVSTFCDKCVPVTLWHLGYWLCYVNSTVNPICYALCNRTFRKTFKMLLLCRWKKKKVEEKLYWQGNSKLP
Nature of the test: Activity of compound against Muscarinic acetylcholine receptor M5 (CHRM5) by displacement of 3H-QNB.

In test [8] the target is Voltage-gated inwardly rectifying potassium channel KCNH2 (Homo sapiens, UniProt Q12809).
Voltage-gated inwardly rectifying potassium channel KCNH2, sequence (Q12809 whole entry): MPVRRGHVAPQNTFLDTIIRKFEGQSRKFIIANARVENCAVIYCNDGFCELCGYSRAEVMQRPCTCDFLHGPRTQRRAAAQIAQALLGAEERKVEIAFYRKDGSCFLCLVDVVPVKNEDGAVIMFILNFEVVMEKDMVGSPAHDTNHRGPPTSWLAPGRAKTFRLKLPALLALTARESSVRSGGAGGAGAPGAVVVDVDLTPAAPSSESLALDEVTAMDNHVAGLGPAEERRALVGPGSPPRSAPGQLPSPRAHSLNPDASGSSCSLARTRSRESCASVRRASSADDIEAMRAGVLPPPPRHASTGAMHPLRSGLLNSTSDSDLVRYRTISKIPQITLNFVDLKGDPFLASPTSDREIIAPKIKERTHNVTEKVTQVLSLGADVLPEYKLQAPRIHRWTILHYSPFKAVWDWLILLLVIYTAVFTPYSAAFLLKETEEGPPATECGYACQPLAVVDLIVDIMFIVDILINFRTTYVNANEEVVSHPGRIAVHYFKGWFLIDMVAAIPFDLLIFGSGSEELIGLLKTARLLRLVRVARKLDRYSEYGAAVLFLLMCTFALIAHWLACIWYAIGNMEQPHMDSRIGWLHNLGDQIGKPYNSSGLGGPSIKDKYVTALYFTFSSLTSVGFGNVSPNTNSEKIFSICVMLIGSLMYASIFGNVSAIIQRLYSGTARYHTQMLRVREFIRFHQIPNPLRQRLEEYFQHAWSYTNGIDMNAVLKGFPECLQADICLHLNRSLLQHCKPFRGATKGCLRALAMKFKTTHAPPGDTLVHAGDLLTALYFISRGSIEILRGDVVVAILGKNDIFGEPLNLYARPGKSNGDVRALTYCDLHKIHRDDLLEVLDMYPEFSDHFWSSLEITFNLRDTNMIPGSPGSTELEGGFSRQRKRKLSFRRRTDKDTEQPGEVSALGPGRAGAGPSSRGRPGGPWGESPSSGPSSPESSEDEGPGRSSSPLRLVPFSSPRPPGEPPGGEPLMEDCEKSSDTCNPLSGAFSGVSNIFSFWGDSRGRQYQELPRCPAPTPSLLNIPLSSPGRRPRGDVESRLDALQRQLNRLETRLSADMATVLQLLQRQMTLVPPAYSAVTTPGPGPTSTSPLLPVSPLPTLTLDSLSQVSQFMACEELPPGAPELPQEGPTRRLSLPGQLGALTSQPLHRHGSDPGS
Description: hERG binding assays: Displacement of [3H]-Dofetilide (5 nM final) from hERG membranes obtained from HEK293 cells

Sigma non-opioid intracellular receptor 1, sequence (Q99720 whole entry): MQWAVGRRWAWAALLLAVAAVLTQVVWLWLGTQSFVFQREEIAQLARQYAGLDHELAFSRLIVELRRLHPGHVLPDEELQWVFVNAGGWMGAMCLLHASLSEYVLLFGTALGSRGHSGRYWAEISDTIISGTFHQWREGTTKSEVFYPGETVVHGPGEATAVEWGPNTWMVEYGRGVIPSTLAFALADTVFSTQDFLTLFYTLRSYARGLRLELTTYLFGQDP
Sigma intracellular receptor 2, sequence (Q5BJF2 whole entry): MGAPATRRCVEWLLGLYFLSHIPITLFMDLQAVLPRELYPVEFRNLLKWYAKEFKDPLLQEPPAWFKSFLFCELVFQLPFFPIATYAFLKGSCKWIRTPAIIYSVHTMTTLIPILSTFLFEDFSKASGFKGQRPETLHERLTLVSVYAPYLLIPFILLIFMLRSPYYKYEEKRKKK

As for `CCCN1CCC=C(c2cc(-c3ccc(C)cc3)no2)C1`, the Ki in test [1] is 10 µM; in test [2], 794 nM; in test [3], 2 nM; in test [4], 8.32 µM; in test [5] it was 20.4 µM; in test [6], 24.5 µM. Moreover, the Ki was 28.2 µM in test [7] and 10 µM in test [8].

One may read the Ki as the equilibrium dissociation constant of an inhibitor or competing ligand from its target. Read a low Ki as higher affinity.
